Assay results reported in patent US20070041944A1, “Treating tumors by ENH dislocation of ID proteins” (THE TRUSTEES OF COLUMBIA UNIVERSITY IN THE CITY OF NEW YORK, priority 2005, published 2007).

Key:
SH-N and SH-F cells = assay: Cell-cycle exit of neuroblastoma cells treated with RA; format: cell-based, human; details: RA 0.1 μM
Description: Human neuroblastoma cells are frequently used as in vitro models to recapitulate differentiation of the nervous system. To ask whether ENH expression is regulated during differentiation of the nervous system, clonal derivatives of the human neuroblastoma cell line SK-N-SH, the SK-N-SH-N (SH-N) and SK-N-SH-F (SH-F) cells were used. These cells, which lack N-myc gene amplification, have been used to characterize the cell-cycle exit associated with differentiation of neural cells. When treated with a low concentration of RA (0.1 μM) SH-N cells undergo differentiation along the neuronal lineage, whereas SH-F cells acquire an epithelioid morphology and rapidly enter into a senescent-like state. Both cell types arrest in the G1 phase of the cell cycle within 48 h of treatment with RA. […] Although higher concentrations of RA led to marked inhibition of N-myc and Id2 gene expression in N-myc-amplified neuroblastoma cells, it was noted that RA at the concentration of 0.1 μM caused little change of Id2 expression in the SK-N-SH derivatives. However, a late decrease of Id2 protein was evident in RA-treated SH-N cells (FIG. 3D).

[1] = test system: Flag-Id2 in SK-N-SH cells; assay: Quantitative analysis of subcellular localization of Flag-Id2 after RA (double immunofluorescence); format: cell-based, human; details: 48 h, SK-N-SH expressing Flag-Id2, three independent experiments
Method: Quantitative Analysis of Subcellular Localization of Id2 and siRNA Experiments: SK-N-SH-Flag-Id2 cells untreated or treated with RA for 48 h were fixed in 4% paraformaldehyde. Flag-Id2 and endogenous ENH were immunostained by using Flag-M2 (Sigma) and ENH antibodies, respectively. SK-N-SH cells were transfected with vector or p3XFlag-ENH and immunostained by using Flag-M2 and Id2 (Zymed) antibodies. For silencing of ENH, ENH siRNA (siGenome Smartpool reagent M-006930-00) and control, nontargeting (siGenome Smartpool reagent D-001206-13) siRNA mixtures were purchased from Dharmacon. SK-N-SH cells stably expressing Flag-Id2 were treated with vehicle control or RA for 48 h and transfected with 60 nM siRNAs by using Lipofectamine 2000 (Invitrogen). Thirty-six hours after transfection cells were fixed in 4% paraformaldehyde and immunostained by using Flag-M2 antibodies. Parallel cultures were analyzed by Western blot. Secondary antibodies were FITC- or Cy3-conjugated anti-rabbit and Cy3-conjugated anti-mouse (Jackson ImmunoResearch). Nuclei were counterstained with DAPI. Slides were mounted in 90% glycerol in PBS and analyzed on an Olympus epifluorescence microscope. The percentage of cells displaying Id2 staining in the nucleus was scored by counting at least 500 cells from triplicate samples. […]

Flag-Id2 = assay: cell-based or functional assay
[2] = molecular target: T1, full length Id2 as bait (entire coding sequence of human Id2 in bait plasmid pDBLeu) (human, UniProt Q02363 1-134); assay: yeast two-hybrid screen of a human fetal brain cDNA library
T1 construct: Yeast two-hybrid bait (Proquest system, pDBLeu); also called Id2 bait
T1 sequence (looked up): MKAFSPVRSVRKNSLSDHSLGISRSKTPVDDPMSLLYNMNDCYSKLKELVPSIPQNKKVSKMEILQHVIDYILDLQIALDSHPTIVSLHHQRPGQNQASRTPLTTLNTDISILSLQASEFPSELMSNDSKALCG
Method: Yeast Two-Hybrid Screening: The Proquest system (Invitrogen Life Technologies, Carlsbad, Calif.) was used for yeast two-hybrid screening. The entire coding sequence of human Id2 was subcloned into the bait plasmid pDBLeu. A human fetal brain cDNA library in pPC86 was transformed into MaV203 yeast cells and screened for interactors with the bait plasmid according to the manufacturer's protocol.
To identify new interactors of Id2 from the nervous system, a yeast two-hybrid screen was conducted with a human fetal brain cDNA library using full length Id2 as bait. This screen yielded 47 validated cDNA clones corresponding to four different Id2-associated proteins. Among them, 24 clones code for Id2, 13 clones code for the bHLH transcription factor E2-2, eight clones code for the bHLH transcription factor HEB, and two clones code for the PDZ-LIM protein ENH. All Id2 and bHLH clones retain an intact HLH domain. This finding is consistent with the essential role of the HLH domain for heterodimerization. The presence of endogenous Id2 is explained by the strong homodimerization ability of Id2 and its abundant expression in the fetal brain.

CC1=C(/C=C/C(C)=C/C=C/C(C)=C/C(=O)O)C(C)(C)CCC1 [RA, retinoic acid]
time to arrest in the G1 phase of the cell cycle (SH-N and SH-F cells): ≤ 48 h
cells with Flag-Id2 relocated to the cytoplasm ([1]; ENH positive cells after RA): ~60%
cells with Flag-Id2 relocated to the cytoplasm ([1]; ENH-negative cells after RA): 10%

endogenous ENH from RA-treated SK-N-SH neuroblastoma cells (from UniProt Q96HC4 2-596)
percentage of cells with cytoplasmic Flag-Id2 after RA treatment (double immunofluorescence) (Flag-Id2): 60%

B1: C-terminal fragment of ENH (amino acids 461-596) of the two two-hybrid clones (other)
chain: EKGALYCELCYEKFFAPECGRCQRKILGEVINALKQTWHVSCFVCVACGKPIRNNVFHLEDGEPYCETDYYALFGTICHGCEFPIEAGDMFLEALGYTWHDTCFVCSVCCESLEGQTFFSKKDKPLCKKHAHSVNF
notes: Prey clones from a human fetal brain cDNA library in pPC86; also called ENH clones
binding result [2]: binds
